From ChEMBL document CHEMBL1201862, “PubChem BioAssay data set” (2004)
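All cell lines were grown in 96-well plates and treated with compound for 48 hours. Abbreviation: GI50, concentration required for 50% inhibition of growth.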 The source made the active and inactive calls. Cut-off read from the data, not from the text of the source: active = GI50 up to about 1.1 µM and inactive = higher.

Assays:
Assay in all cases: growth of human tumour cells (NCI), 48 h
M14 = test system: M14
KM12 = test system: KM12
MCF7 = test system: MCF7
SK-MEL-2 = test system: SK-MEL-2
OVCAR-4 = test system: OVCAR-4
K562 = test system: K562
SNB-19 = test system: SNB-19
PC-3 = test system: PC-3
DU-145 = test system: DU-145
OVCAR-3 = test system: OVCAR-3
SR = test system: SR
SK-MEL-28 = test system: SK-MEL-28
OVCAR-8 = test system: OVCAR-8
NCI/ADR-RES = test system: NCI/ADR-RES
OVCAR-5 = test system: OVCAR-5
UACC-257 = test system: UACC-257
SF-539 = test system: SF-539
HOP-62 = test system: HOP-62
786-0 = test system: 786-0
EKVX = test system: EKVX
ACHN = test system: ACHN
MDA-N = test system: MDA-N
A498 = test system: A498
NCI-H23 = test system: NCI-H23
IGROV-1 = test system: IGROV-1
CCRF-CEM = test system: CCRF-CEM
T47D = test system: T47D
COLO 205 = test system: COLO 205
NCI-H460 = test system: NCI-H460
SN12C = test system: SN12C
SF-295 = test system: SF-295
SNB-75 = test system: SNB-75
TK-10 = test system: TK-10
NCI-H226 = test system: NCI-H226
CAKI-1 = test system: CAKI-1
UACC-62 = test system: UACC-62
SW-620 = test system: SW-620
Hs-578T = test system: Hs-578T
Malme-3M = test system: Malme-3M
RXF 393 = test system: RXF 393
BT-549 = test system: BT-549
A549 = test system: A549
MDA-MB-435 = test system: MDA-MB-435
UO-31 = test system: UO-31
SK-MEL-5 = test system: SK-MEL-5
SK-OV-3 = test system: SK-OV-3
HOP-92 = test system: HOP-92
HCT-15 = test system: HCT-15
NCI-H522 = test system: NCI-H522
HCC 2998 = test system: HCC 2998
U-251 = test system: U-251
RPMI-8226 = test system: RPMI-8226
MOLT-4 = test system: MOLT-4
HCT-116 = test system: HCT-116
HT-29 = test system: HT-29
SF-268 = test system: SF-268
LOX IMVI = test system: LOX IMVI
MDA-MB-231 = test system: MDA-MB-231
HL-60 = test system: HL-60

For `O=c1c2ccccc2nc2sc(/N=C/C=C/c3ccccc3)nn12`, the GI50 (M14) was > 100 µM (inactive), the GI50 (KM12) was > 100 µM (inactive) and the GI50 (MCF7) was > 100 µM (inactive). For the same compound, the GI50 (SK-MEL-2) was > 100 µM (inactive), the GI50 (OVCAR-4) was > 100 µM (inactive) and the GI50 (K562) was > 100 µM (inactive). The GI50 (SNB-19) was > 100 µM (inactive), the GI50 (PC-3) was > 100 µM (inactive) and the GI50 (DU-145) was > 100 µM (inactive). The GI50 (OVCAR-3) was > 100 µM (inactive), the GI50 (SR) was > 100 µM (inactive) and the GI50 (SK-MEL-28) was > 100 µM (inactive). For the same compound, the GI50 (OVCAR-8) was > 100 µM (inactive), the GI50 (NCI/ADR-RES) was > 100 µM (inactive) and the GI50 (OVCAR-5) was > 100 µM (inactive). For the same compound, the GI50 (UACC-257) was > 100 µM (inactive), the GI50 (SF-539) was > 100 µM (inactive) and the GI50 (HOP-62) was > 100 µM (inactive). The GI50 (786-0) was > 100 µM (inactive), the GI50 (EKVX) was > 100 µM (inactive) and the GI50 (ACHN) was > 100 µM (inactive). For the same compound, the GI50 (MDA-N) was > 100 µM (inactive), the GI50 (A498) was > 100 µM (inactive) and the GI50 (NCI-H23) was > 100 µM (inactive). The GI50 (IGROV-1) was > 100 µM (inactive), the GI50 (CCRF-CEM) was 55.5 µM (inactive) and the GI50 (T47D) was > 100 µM (inactive). The GI50 (COLO 205) was > 100 µM (inactive), the GI50 (NCI-H460) was > 100 µM (inactive) and the GI50 (SN12C) was > 100 µM (inactive). For the same compound, the GI50 (SF-295) was > 100 µM (inactive), the GI50 (SNB-75) was > 100 µM (inactive) and the GI50 (TK-10) was > 100 µM (inactive). For the same compound, the GI50 (NCI-H226) was > 100 µM (inactive), the GI50 (CAKI-1) was > 100 µM (inactive) and the GI50 (UACC-62) was > 100 µM (inactive). The GI50 (SW-620) was > 100 µM (inactive), the GI50 (Hs-578T) was > 100 µM (inactive) and the GI50 (Malme-3M) was > 100 µM (inactive). For the same compound, the GI50 (RXF 393) was > 100 µM (inactive), the GI50 (BT-549) was > 100 µM (inactive) and the GI50 (A549) was > 100 µM (inactive). For the same compound, the GI50 (MDA-MB-435) was > 100 µM (inactive), the GI50 (UO-31) was 77.4 µM (inactive) and the GI50 (SK-MEL-5) was > 100 µM (inactive). The GI50 (SK-OV-3) was > 100 µM (inactive), the GI50 (HOP-92) was > 100 µM (inactive) and the GI50 (HCT-15) was > 100 µM. For the same compound, the GI50 (NCI-H522) was > 100 µM (inactive), the GI50 (HCC 2998) was > 100 µM (inactive) and the GI50 (U-251) was > 100 µM (inactive). The GI50 (RPMI-8226) was > 100 µM (inactive), the GI50 (MOLT-4) was 44.9 µM (inactive) and the GI50 (HCT-116) was > 100 µM (inactive). The GI50 (HT-29) was > 100 µM (inactive), the GI50 (SF-268) was > 100 µM (inactive) and the GI50 (LOX IMVI) was 56.9 µM (inactive).

With `Cc1nc(C(N)=S)sc1/C(CC(=O)C(=O)Nc1cccc2ccc(O)cc12)=N\NC(=O)c1ccncc1` the GI50 (M14) was > 100 µM (inactive), the GI50 (KM12) was > 100 µM (inactive) and the GI50 (MCF7) was 39.7 µM (inactive). For the same compound, the GI50 (SK-MEL-2) was > 100 µM (inactive), the GI50 (OVCAR-4) was 49.9 µM (inactive) and the GI50 (SNB-19) was 73.5 µM (inactive). For the same compound, the GI50 (PC-3) was 75.9 µM (inactive), the GI50 (DU-145) was 55.3 µM (inactive) and the GI50 (OVCAR-3) was 34 µM (inactive). For the same compound, the GI50 (MDA-MB-231) was > 100 µM (inactive), the GI50 (SK-MEL-28) was 74.8 µM (inactive) and the GI50 (OVCAR-8) was 49.1 µM (inactive). For the same compound, the GI50 (NCI/ADR-RES) was > 100 µM (inactive), the GI50 (OVCAR-5) was > 100 µM (inactive) and the GI50 (UACC-257) was > 100 µM (inactive). For the same compound, the GI50 (HL-60) was 25.6 µM (inactive), the GI50 (SF-539) was 94.2 µM (inactive) and the GI50 (HOP-62) was 37.5 µM (inactive). For the same compound, the GI50 (786-0) was 40.3 µM (inactive), the GI50 (EKVX) was > 100 µM (inactive) and the GI50 (ACHN) was > 100 µM (inactive). For the same compound, the GI50 (MDA-N) was 63.5 µM (inactive), the GI50 (NCI-H23) was > 100 µM (inactive) and the GI50 (IGROV-1) was 53.7 µM (inactive). The GI50 (CCRF-CEM) was 33.4 µM (inactive), the GI50 (COLO 205) was 49.2 µM (inactive) and the GI50 (NCI-H460) was 22.9 µM (inactive). The GI50 (SN12C) was 35.1 µM (inactive), the GI50 (SF-295) was > 100 µM (inactive) and the GI50 (SNB-75) was > 100 µM (inactive). For the same compound, the GI50 (TK-10) was 77.8 µM (inactive), the GI50 (NCI-H226) was 61.1 µM (inactive) and the GI50 (CAKI-1) was > 100 µM (inactive). The GI50 (UACC-62) was 29.5 µM (inactive), the GI50 (SW-620) was > 100 µM (inactive) and the GI50 (Hs-578T) was > 100 µM (inactive). The GI50 (RXF 393) was > 100 µM (inactive), the GI50 (BT-549) was > 100 µM (inactive) and the GI50 (A549) was > 100 µM (inactive). For the same compound, the GI50 (MDA-MB-435) was > 100 µM (inactive), the GI50 (UO-31) was 98.2 µM (inactive) and the GI50 (SK-MEL-5) was 33.2 µM (inactive). For the same compound, the GI50 (SK-OV-3) was > 100 µM (inactive), the GI50 (HOP-92) was 31.6 µM (inactive) and the GI50 (HCT-15) was 41.9 µM. For the same compound, the GI50 (NCI-H522) was 34.5 µM (inactive), the GI50 (HCC 2998) was 59.8 µM (inactive) and the GI50 (U-251) was 68.5 µM (inactive). The GI50 (MOLT-4) was 28.2 µM (inactive), the GI50 (HCT-116) was 55.8 µM (inactive) and the GI50 (HT-29) was 37.8 µM (inactive). For the same compound, the GI50 (SF-268) was 82.8 µM (inactive) and the GI50 (LOX IMVI) was 42.2 µM (inactive).

For `CSc1ccc2c(cc1=O)[C@@H](NC(=O)c1ccc(N)cc1)CCc1cc(O)c(O)c(O)c1-2`, the GI50 (OVCAR-4) was 22 µM (inactive), the GI50 (K562) was 9.66 µM (inactive) and the GI50 (SNB-19) was 25.1 µM (inactive). The GI50 (DU-145) was 49.1 µM (inactive), the GI50 (OVCAR-8) was 22 µM (inactive) and the GI50 (NCI/ADR-RES) was 28.5 µM (inactive). The GI50 (OVCAR-5) was 23.4 µM (inactive), the GI50 (UACC-257) was 18.3 µM (inactive) and the GI50 (SF-539) was 3.85 µM (inactive). The GI50 (HOP-62) was 15.1 µM (inactive), the GI50 (786-0) was 16.4 µM (inactive) and the GI50 (EKVX) was 30.1 µM (inactive). The GI50 (ACHN) was 21.2 µM (inactive), the GI50 (A498) was 46.2 µM (inactive) and the GI50 (IGROV-1) was 25 µM (inactive). For the same compound, the GI50 (T47D) was 66.1 µM (inactive), the GI50 (NCI-H460) was 12 µM (inactive) and the GI50 (SN12C) was 27.9 µM (inactive). For the same compound, the GI50 (SF-295) was 15.7 µM (inactive), the GI50 (BT-549) was 16 µM (inactive) and the GI50 (A549) was 23.6 µM (inactive). The GI50 (MDA-MB-435) was 7.85 µM (inactive), the GI50 (UO-31) was 26 µM (inactive) and the GI50 (SK-OV-3) was > 100 µM (inactive). For the same compound, the GI50 (HOP-92) was 41.4 µM (inactive), the GI50 (HCT-15) was 17.9 µM and the GI50 (NCI-H522) was 7.67 µM (inactive). The GI50 (HCC 2998) was 14.5 µM (inactive), the GI50 (U-251) was 25.4 µM (inactive) and the GI50 (RPMI-8226) was 22.3 µM (inactive). The GI50 (MOLT-4) was 22.6 µM (inactive) and the GI50 (SF-268) was 13.6 µM (inactive).
